Data on 15 compounds can be found in ChEMBL document CHEMBL1146907, “New, potent P1/P2-morpholinone-based HIV-protease inhibitors” (Bioorg Med Chem Lett, 2006).

Structures are written as SMILES.

In general, Ki refers to the equilibrium dissociation constant of an inhibitor or competing ligand from its target. A higher Ki goes with weaker binding.

This assay has as its target Human immunodeficiency virus type 1 protease (Human immunodeficiency virus 1, UniProt Q72874). Nature of the assay: Inhibition of HIV protease.
For the compound `COc1ccc(S(=O)(=O)N(CC2CCCC2)C[C@@H](O)CN2C(=O)C3(CC3)OC[C@@H]2Cc2ccccc2)cc1`, the Ki was found to be 9 nM.

As to `COc1ccc(S(=O)(=O)N(CC2CCCC2)C[C@@H](O)CN2C(=O)[C@@H](CCCN)OC[C@@H]2Cc2ccccc2)cc1`, affinity was put at a Ki of 5800 nM.

`COc1ccc(S(=O)(=O)N(CC2CCCC2)C[C@@H](O)CN2C(=O)[C@@H](CCN)OC[C@@H]2Cc2ccccc2)cc1` registered a Ki of 600 nM.

In turn, `COc1ccc(S(=O)(=O)N(CC2CCCC2)C[C@@H](O)CN2C(=O)[C@H](C)OC[C@@H]2Cc2ccccc2)cc1` registered a Ki of 38 nM. `COc1ccc(S(=O)(=O)N(CC2CCCC2)C[C@@H](O)CN2C(=O)[C@H](Cc3cccc(C#N)c3)OC[C@@H]2Cc2ccccc2)cc1` came in with a Ki of 490 nM. `COc1ccc(S(=O)(=O)N(CC2CCCC2)C[C@@H](O)CN2C(=O)[C@@H](CCC#N)OC[C@@H]2Cc2ccccc2)cc1` gave a Ki of 11 nM. In the case of `C=CC[C@H]1OC[C@H](Cc2ccccc2)N(C[C@H](O)CN(CC2CCCC2)S(=O)(=O)c2ccc(OC)cc2)C1=O` it was 2 nM; in that of `COc1ccc(S(=O)(=O)N(CC2CCCC2)N2C(=O)C3(CCOCC3)OC[C@@H]2Cc2ccccc2)cc1`, 23 nM; in that of `COc1ccc(S(=O)(=O)N(CC2CCCC2)C[C@@H](O)CN2C(=O)C3(CCCCC3)OC[C@@H]2Cc2ccccc2)cc1`, 2 nM. As for `COc1ccc(S(=O)(=O)N(CC2CCCC2)C[C@@H](O)CN2C(=O)[C@@H](Cc3ccccc3)OC[C@@H]2Cc2ccccc2)cc1`, the figure is 35 nM; as for `COc1ccc(S(=O)(=O)N(CC2CCCC2)C[C@@H](O)CN2C(=O)[C@@H](CCN=[N+]=[N-])OC[C@@H]2Cc2ccccc2)cc1`, 81 nM; as for `COc1ccc(S(=O)(=O)N(CC2CCCC2)C[C@@H](O)CN2C(=O)[C@@H](Cc3cccc(C#N)c3)OC[C@@H]2Cc2ccccc2)cc1`, 55 nM. In the case of `C=CC[C@@H]1OC[C@H](Cc2ccccc2)N(C[C@H](O)CN(CC2CCCC2)S(=O)(=O)c2ccc(OC)cc2)C1=O` it was 270 nM. Consider `COc1ccc(S(=O)(=O)N(CC2CCCC2)C[C@@H](O)CN2C(=O)[C@@H](CCC(N)=O)OC[C@@H]2Cc2ccccc2)cc1`, for which affinity was put at a Ki of 49 nM. In the case of `COc1ccc(S(=O)(=O)N(CC2CCCC2)C[C@@H](O)CN2C(=O)[C@@H](CCO)OC[C@@H]2Cc2ccccc2)cc1` it was 30 nM.
